Source: ChEMBL document CHEMBL5291721, “A preclinical secondary pharmacology resource illuminates target-adverse drug reaction associations of marketed drugs” (Nat Commun, 2023)

Key:
[1] = target: T1, D(4) dopamine receptor (Homo sapiens, UniProt P21917)
T1 sequence (P21917 whole entry): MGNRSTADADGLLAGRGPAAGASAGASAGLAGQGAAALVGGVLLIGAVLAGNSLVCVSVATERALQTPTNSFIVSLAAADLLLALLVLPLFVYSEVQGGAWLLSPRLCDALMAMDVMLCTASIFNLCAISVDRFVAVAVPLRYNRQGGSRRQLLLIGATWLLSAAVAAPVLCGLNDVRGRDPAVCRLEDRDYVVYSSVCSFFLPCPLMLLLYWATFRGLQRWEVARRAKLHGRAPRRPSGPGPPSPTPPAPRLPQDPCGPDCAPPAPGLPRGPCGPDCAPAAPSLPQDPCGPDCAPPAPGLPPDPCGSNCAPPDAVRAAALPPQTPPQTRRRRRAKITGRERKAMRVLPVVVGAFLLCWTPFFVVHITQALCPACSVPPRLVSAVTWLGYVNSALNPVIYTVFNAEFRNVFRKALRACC

[2] = target: Estrogen receptor beta (Homo sapiens, UniProt Q92731)
Estrogen receptor beta, sequence (Q92731 whole entry): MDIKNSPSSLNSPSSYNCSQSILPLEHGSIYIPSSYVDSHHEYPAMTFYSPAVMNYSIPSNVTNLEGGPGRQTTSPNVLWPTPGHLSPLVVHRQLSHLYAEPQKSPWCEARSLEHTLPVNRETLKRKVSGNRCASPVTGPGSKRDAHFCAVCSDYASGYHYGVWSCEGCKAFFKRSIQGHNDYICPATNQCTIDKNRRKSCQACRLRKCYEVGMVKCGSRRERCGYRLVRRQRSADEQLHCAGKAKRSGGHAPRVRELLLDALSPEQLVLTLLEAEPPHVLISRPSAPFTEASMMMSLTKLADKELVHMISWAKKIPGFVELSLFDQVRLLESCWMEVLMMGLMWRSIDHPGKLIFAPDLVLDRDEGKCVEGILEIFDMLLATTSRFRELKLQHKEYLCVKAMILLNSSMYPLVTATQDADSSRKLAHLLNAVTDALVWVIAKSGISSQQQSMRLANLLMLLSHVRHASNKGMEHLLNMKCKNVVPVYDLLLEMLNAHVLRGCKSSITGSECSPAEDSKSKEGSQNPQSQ

[3] = target: T2, Progesterone receptor (Homo sapiens, UniProt P06401)
T2 sequence (P06401 whole entry): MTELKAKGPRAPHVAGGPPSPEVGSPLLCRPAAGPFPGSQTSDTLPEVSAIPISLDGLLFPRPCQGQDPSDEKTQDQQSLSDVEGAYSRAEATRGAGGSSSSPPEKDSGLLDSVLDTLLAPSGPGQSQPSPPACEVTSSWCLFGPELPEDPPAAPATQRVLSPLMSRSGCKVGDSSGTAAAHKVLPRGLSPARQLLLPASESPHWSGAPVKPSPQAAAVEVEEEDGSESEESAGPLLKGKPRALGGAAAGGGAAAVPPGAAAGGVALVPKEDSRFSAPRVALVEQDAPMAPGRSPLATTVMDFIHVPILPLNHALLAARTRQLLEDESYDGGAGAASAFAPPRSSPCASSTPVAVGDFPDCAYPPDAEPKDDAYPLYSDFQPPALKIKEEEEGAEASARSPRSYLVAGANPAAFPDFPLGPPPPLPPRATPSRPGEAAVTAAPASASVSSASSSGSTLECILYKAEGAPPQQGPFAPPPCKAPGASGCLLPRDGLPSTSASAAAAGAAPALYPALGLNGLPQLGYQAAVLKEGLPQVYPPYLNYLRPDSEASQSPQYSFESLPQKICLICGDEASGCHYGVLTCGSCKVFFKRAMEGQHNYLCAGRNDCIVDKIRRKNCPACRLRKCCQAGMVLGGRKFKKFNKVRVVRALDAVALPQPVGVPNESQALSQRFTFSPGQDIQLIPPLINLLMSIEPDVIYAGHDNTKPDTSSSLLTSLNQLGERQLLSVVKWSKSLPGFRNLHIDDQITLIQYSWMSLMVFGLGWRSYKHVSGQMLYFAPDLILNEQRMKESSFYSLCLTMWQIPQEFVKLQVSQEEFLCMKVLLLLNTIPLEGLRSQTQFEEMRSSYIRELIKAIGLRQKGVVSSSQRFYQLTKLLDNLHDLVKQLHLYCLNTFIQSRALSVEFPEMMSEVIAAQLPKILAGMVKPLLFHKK

[4] = target: Substance-P receptor (Homo sapiens, UniProt P25103)
Substance-P receptor, sequence (P25103 whole entry): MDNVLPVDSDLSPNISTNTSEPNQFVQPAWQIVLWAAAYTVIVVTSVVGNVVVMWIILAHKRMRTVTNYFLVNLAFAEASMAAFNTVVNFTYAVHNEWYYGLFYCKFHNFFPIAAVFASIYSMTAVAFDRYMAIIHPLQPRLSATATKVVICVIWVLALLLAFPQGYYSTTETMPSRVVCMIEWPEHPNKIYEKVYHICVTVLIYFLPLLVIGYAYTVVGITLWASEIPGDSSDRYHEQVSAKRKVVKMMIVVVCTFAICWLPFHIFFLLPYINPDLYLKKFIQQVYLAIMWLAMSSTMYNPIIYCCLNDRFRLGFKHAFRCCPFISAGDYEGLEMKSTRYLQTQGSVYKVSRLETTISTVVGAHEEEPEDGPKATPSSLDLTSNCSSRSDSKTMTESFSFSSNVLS

[5] = target: T3, Alpha-2A adrenergic receptor (Homo sapiens, UniProt P08913)
T3 sequence (P08913 whole entry): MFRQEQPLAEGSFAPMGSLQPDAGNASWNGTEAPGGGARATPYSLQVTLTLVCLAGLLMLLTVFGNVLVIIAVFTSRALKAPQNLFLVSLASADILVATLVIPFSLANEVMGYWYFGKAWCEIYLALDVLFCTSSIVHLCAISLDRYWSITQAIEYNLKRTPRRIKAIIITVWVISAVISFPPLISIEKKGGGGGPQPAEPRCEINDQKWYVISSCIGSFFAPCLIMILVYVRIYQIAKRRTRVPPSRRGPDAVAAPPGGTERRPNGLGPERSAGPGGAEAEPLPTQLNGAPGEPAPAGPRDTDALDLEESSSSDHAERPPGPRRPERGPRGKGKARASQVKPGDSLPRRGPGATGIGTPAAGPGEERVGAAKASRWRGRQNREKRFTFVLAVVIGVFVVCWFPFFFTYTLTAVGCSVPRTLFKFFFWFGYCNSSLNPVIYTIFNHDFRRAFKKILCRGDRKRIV

[6] = target: T4, Alpha-1A adrenergic receptor (Homo sapiens, UniProt P35348)
T4 sequence (P35348 whole entry): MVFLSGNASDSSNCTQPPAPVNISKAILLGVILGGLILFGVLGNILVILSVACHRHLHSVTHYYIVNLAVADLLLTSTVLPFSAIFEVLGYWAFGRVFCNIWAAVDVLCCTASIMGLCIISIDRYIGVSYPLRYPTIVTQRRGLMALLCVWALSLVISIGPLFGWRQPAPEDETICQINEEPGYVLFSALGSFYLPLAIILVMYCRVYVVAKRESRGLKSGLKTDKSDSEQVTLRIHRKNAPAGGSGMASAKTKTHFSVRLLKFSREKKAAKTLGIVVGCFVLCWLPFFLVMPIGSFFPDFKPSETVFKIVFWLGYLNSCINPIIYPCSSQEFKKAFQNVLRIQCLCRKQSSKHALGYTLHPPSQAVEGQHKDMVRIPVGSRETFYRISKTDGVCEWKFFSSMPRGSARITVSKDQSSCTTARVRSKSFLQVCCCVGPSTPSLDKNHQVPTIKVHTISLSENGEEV

[7] = target: Histamine H1 receptor (Homo sapiens, UniProt P35367); type: functional, cell-based
Histamine H1 receptor, sequence (P35367 whole entry): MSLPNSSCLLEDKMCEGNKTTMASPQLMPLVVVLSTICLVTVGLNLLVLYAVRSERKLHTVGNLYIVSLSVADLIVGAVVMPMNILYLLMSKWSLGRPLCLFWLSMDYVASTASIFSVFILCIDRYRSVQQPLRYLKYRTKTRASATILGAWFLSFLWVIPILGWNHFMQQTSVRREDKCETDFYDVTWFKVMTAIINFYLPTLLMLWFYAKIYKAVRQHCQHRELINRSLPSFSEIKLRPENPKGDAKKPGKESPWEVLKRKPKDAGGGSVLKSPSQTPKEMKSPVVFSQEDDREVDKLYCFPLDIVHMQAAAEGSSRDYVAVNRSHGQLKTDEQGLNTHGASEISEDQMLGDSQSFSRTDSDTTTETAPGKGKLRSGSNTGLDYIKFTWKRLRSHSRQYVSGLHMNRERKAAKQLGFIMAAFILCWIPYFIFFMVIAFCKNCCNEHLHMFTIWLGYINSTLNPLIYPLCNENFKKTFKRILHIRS

[8] = target: Cannabinoid receptor 1 (Homo sapiens, UniProt P21554); type: functional
Cannabinoid receptor 1, sequence (P21554 whole entry): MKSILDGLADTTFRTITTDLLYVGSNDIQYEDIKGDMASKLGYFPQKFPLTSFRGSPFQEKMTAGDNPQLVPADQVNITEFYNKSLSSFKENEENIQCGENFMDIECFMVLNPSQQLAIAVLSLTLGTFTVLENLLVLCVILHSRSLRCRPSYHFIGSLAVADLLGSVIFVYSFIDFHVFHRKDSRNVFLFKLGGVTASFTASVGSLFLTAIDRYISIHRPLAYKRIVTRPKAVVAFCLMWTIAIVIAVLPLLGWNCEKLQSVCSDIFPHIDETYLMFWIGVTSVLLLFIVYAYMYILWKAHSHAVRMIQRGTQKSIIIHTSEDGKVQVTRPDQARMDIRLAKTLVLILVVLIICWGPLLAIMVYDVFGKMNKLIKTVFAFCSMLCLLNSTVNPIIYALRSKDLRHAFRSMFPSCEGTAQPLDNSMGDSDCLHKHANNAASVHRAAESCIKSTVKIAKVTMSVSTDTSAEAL

[9] = target: Gamma-aminobutyric acid type B receptor subunit 1 (Homo sapiens, UniProt Q9UBS5)
Gamma-aminobutyric acid type B receptor subunit 1, sequence (Q9UBS5 whole entry): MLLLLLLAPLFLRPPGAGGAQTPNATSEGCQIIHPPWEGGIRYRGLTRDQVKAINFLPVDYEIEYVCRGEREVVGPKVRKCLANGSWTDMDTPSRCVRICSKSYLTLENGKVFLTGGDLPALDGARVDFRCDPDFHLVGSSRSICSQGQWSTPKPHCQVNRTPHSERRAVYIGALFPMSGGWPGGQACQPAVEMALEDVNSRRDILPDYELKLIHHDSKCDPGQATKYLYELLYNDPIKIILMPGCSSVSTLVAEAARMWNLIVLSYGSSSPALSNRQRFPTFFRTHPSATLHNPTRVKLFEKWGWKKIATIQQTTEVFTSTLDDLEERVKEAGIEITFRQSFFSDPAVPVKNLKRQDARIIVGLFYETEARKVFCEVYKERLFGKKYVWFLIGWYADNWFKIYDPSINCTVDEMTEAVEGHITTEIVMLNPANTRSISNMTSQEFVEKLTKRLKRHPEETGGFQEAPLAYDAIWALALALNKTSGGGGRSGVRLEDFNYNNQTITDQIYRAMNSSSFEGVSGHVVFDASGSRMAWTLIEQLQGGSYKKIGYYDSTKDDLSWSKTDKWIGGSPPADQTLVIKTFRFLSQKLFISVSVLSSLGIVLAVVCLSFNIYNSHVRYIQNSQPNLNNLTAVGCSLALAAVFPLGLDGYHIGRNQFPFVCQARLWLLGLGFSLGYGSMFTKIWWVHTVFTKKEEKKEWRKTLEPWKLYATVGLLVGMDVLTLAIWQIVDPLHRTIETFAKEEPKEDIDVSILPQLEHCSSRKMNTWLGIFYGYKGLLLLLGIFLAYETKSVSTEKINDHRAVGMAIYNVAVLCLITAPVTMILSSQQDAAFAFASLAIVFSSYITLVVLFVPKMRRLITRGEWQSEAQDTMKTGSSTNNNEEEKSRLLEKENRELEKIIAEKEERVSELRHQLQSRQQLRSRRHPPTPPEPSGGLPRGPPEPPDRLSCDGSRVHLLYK

[10] = target: 5-hydroxytryptamine receptor 6 (Homo sapiens, UniProt P50406)
5-hydroxytryptamine receptor 6, sequence (P50406 whole entry): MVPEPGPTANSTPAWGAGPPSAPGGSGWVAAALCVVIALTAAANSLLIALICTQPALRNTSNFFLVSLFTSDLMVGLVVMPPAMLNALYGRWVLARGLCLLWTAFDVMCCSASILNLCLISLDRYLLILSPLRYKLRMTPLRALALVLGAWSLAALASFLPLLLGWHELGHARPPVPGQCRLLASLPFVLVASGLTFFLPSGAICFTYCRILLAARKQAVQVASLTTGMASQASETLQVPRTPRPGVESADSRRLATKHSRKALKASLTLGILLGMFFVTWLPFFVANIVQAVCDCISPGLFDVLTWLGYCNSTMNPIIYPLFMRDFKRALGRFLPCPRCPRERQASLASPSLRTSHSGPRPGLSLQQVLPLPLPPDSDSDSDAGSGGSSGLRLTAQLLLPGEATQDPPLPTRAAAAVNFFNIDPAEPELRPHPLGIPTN

[11] = target: 5-hydroxytryptamine receptor 7 (Homo sapiens, UniProt P34969)
5-hydroxytryptamine receptor 7, sequence (P34969 whole entry): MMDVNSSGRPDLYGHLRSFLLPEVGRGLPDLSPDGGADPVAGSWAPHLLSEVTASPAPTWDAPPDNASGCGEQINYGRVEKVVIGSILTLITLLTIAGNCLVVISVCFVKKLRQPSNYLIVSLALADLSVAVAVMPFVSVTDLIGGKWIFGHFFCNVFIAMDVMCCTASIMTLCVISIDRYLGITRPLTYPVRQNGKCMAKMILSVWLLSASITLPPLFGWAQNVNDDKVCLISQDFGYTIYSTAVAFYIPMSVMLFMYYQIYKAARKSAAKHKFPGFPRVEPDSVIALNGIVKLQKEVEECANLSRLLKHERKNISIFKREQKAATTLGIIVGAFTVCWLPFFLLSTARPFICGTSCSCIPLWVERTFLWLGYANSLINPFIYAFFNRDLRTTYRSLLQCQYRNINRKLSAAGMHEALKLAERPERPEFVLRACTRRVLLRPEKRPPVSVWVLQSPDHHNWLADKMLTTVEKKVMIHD

[12] = target: Beta-1 adrenergic receptor (Homo sapiens, UniProt P08588); type: functional, cell-based
Beta-1 adrenergic receptor, sequence (P08588 whole entry): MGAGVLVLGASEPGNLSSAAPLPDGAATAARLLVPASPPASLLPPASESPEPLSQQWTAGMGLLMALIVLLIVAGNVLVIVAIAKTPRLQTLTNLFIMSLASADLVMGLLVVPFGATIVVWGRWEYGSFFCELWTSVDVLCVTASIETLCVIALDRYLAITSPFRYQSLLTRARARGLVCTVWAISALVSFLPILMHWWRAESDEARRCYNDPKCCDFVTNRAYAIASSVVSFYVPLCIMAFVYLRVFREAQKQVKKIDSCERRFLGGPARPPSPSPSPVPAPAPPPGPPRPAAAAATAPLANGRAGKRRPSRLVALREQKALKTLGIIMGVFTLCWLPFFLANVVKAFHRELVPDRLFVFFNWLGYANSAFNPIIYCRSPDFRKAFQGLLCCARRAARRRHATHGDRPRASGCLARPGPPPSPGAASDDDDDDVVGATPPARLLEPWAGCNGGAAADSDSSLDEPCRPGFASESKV
Note: assay procedure not described here.

SMILES: CN[C@@H](C)[C@H](O)c1ccccc1 [EPHEDRINE]
- AC50 [1]: > 10 µM
- AC50 [2]: > 30 µM
- AC50 [3]: > 30 µM
- AC50 [4]: > 10 µM
- AC50 [5]: > 10 µM
- AC50 [6]: > 10 µM

SMILES: NC(CO)C(=O)NNCc1ccc(O)c(O)c1O (stereo unspecified) [BENSERAZIDE]
- AC50 [7]: > 30 µM
- AC50 [3]: > 30 µM
- AC50 [5]: > 10 µM

SMILES: NC(=O)C[S+]([O-])C(c1ccccc1)c1ccccc1 (stereo unspecified) [MODAFINIL]
- AC50 [8]: > 10 µM
- AC50 [1]: > 10 µM
- AC50 [2]: > 30 µM
- AC50 [9]: > 10 µM
- AC50 [10]: > 10 µM
- AC50 [11]: > 10 µM
- AC50 [3]: > 30 µM
- AC50 [4]: > 10 µM
- AC50 [5]: > 10 µM
- AC50 [6]: > 10 µM

SMILES: O=C1CN=C(c2ccccc2)c2cc(Cl)ccc2N1CC(F)(F)F [HALAZEPAM]
- AC50 [7]: > 30 µM

SMILES: C[C@]12CCC(=O)C=C1CC[C@@H]1[C@@H]2CC[C@@]2(C)[C@H]1CC[C@]2(C)O [METHYLTESTOSTERONE]
- AC50 [12]: > 30 µM

SMILES: C[C@H]1C[C@@H]2[C@H]([C@@H](O)C[C@@]3(C)[C@H]2CC[C@]3(O)C(=O)COC(=O)CCC(=O)O)[C@@]2(C)C=CC(=O)C=C12 [METHYLPREDNISOLONE HEMISUCCINATE]
- AC50 [7]: > 30 µM

SMILES: CCNC(C)Cc1cccc(C(F)(F)F)c1 (stereo unspecified) [FENFLURAMINE]
- AC50 [9]: > 10 µM
- AC50 [3]: > 30 µM
- AC50 [4]: > 10 µM

SMILES: CN1CCN(C(=O)OC2c3nccnc3C(=O)N2c2ccc(Cl)cn2)CC1 (stereo unspecified) [ZOPICLONE]
- AC50 [8]: > 10 µM
- AC50 [1]: > 10 µM
- AC50 [2]: > 30 µM
- AC50 [10]: > 10 µM
- AC50 [11]: > 10 µM
- AC50 [3]: > 30 µM
- AC50 [5]: > 10 µM
- AC50 [6]: > 10 µM

SMILES: C=C1CC[C@@]2(O)[C@H]3Cc4ccc(O)c5c4[C@@]2(CCN3CC2CC2)[C@H]1O5
- AC50 [7]: > 30 µM

SMILES: CCCCC(C)(O)C/C=C/[C@H]1[C@H](O)CC(=O)[C@@H]1CCCCCCC(=O)OC (stereo partly specified) [MISOPROSTOL]
- AC50 [7]: > 30 µM

SMILES: Cc1cc(-c2ccccc2)nnc1NCCN1CCOCC1 [MINAPRINE]
- AC50 [1]: > 10 µM
- AC50 [2]: > 30 µM
- AC50 [3]: > 30 µM
- AC50 [4]: > 10 µM
- AC50 [5]: > 10 µM
- AC50 [6]: > 10 µM

SMILES: Cc1c(Cl)cccc1Nc1ccccc1C(=O)O [TOLFENAMIC ACID]
- AC50 [12]: > 30 µM

SMILES: CCCCCCC(C)(C)c1cc(O)c2c(c1)OC(C)(C)C1CCC(=O)CC21 (stereo unspecified) [NABILONE]
- AC50 [7]: > 30 µM

SMILES: COc1ccc2cccc(CCNC(C)=O)c2c1 [AGOMELATINE]
- AC50 [1]: > 10 µM
- AC50 [2]: > 30 µM
- AC50 [3]: > 30 µM
- AC50 [4]: > 10 µM
- AC50 [5]: > 10 µM
- AC50 [6]: > 10 µM

SMILES: Cc1c(C(=O)Nc2ccc(N3C[C@@H](C)O[C@@H](C)C3)nc2)cccc1-c1ccc(OC(F)(F)F)cc1 [SONIDEGIB]
- AC50 [1]: > 10 µM
- AC50 [2]: > 30 µM
- AC50 [3]: 19.7 µM
- AC50 [4]: > 10 µM
- AC50 [5]: > 10 µM
- AC50 [6]: > 10 µM

SMILES: CN(C)C(=O)OC1N=C(c2ccccc2)c2cc(Cl)ccc2N(C)C1=O (stereo unspecified) [CAMAZEPAM]
- AC50 [8]: > 10 µM
- AC50 [1]: > 10 µM
- AC50 [2]: > 30 µM
- AC50 [9]: > 10 µM
- AC50 [10]: > 10 µM
- AC50 [11]: > 10 µM
- AC50 [3]: > 30 µM
- AC50 [4]: > 10 µM
- AC50 [5]: > 10 µM
- AC50 [6]: > 10 µM

SMILES: Nc1ncnc2c1ncn2[C@@H]1O[C@H](COP(=O)(O)O)[C@@H](O)[C@H]1O [ADENOSINE PHOSPHATE]
- AC50 [7]: > 30 µM
